# Biological target: T1, TRPML1 (Homo sapiens, UniProt Q9GZU1)
# T1 construct: expressed in transfected cells
# Experiment: Cellular TRPML1 assay (FLIPR TETRA, GCaMP6f calcium read-out)
# Format: cell-based
# Details: HEK T-REx/GCaMP6f/TRPML1 cells; Ca2+ response over 300 s, normalized to ML-SA1 50 μM; Ca2+ free or Optimem condition not given; read-out: Ec50 (Activity of TRPML1 agonists)
# Experimental: Buffers and reagents • PBS (D-PBS without calcium and magnesium; EuroClone) • Trypsin (Trypsin 0.05%, EDTA 0.02% in PBS; EuroClone) • DMSO (Sigma) • Ca^2+ free Tyrode's buffer: in-house solution (130 mM NaCl, 5 mM KCl, 1 mM MgCl2, 5 mM NaHCO3, 20 mM HEPES in water at pH 7.4; sterile filtered). • Opti-MEM (Gibco) • Agonist: ML-SA1 (Sigma); stock: 60 mM in DMSO, stored at −20° C. • Blocker: ML-SI3 (in house synthesis); stock: 20 mM in DMSO, stored at −20° C.
# The final clone for the TRPML1 assay is HEK T-REx/GCaMP6f/TRPML1.
# GCaMP6f is a genetically encoded calcium indicator that is stably expressed in this cell line and used as a fluorescent read-out.
# Experiments are performed in 384 MTP format. Cells are seeded at 15000 cells/well either in 25 μl/well of growth medium or in 20 μl/well of Optimem+0.5% FBS without selection antibiotics. Twenty-four hours later, cells are assayed for the response to various compounds using the Ca^2+ sensitive GCaMP6f protein stably expressed in the cells as readout.
# The experiment is performed in a 384-well format according to the following procedures for either Ca^2+ free or Optimem conditions: • Ca^2+ free condition (in absence of extracellular Ca^2+): • 24 h after seeding, pre-incubate the cells at room temperature for about 10′. • Then remove the culture medium and replace it with 20 μL of Ca^2+ free Tyrode's buffer. • Start the experiment at the FLIPR^TETRA by injecting 10 μL/w of 3× concentrated test compounds and controls in Ca^2+ free Tyrode's buffer. Monitor the kinetic response over a period of 300 seconds. • Final DMSO concentration: 0.5% • Optimem condition (in presence of extracellular Ca^2+): • 24 h after seeding, pre-incubate the cells at room temperature for about 10′. • Start the experiment at the FLIPR^TETRA by injecting 10 μL/w of 3× concentrated test compounds and controls in Ca^2+ free Tyrode's buffer. Monitor the kinetic response over a period of 300 seconds. • Final DMSO concentration: 0.5%
# Data from FLIPR^TETRA measurements are analyzed with the Genedata Screener® software.
# Stimulator controls (Col 2): injection of ML-SA1 EC100 (50 μM) in alternated wells positions
# Neutral controls (Col 2): injection of 0 mM Ca^2+ free Tyrode's buffer in alternated wells positions.
# Test wells (Col 3-22): test compounds dose response curve from either 100 μM with 1:2 dilution steps or from 50 μM with 1:3.16 dilution steps.
# T1 sequence (Q9GZU1 whole entry): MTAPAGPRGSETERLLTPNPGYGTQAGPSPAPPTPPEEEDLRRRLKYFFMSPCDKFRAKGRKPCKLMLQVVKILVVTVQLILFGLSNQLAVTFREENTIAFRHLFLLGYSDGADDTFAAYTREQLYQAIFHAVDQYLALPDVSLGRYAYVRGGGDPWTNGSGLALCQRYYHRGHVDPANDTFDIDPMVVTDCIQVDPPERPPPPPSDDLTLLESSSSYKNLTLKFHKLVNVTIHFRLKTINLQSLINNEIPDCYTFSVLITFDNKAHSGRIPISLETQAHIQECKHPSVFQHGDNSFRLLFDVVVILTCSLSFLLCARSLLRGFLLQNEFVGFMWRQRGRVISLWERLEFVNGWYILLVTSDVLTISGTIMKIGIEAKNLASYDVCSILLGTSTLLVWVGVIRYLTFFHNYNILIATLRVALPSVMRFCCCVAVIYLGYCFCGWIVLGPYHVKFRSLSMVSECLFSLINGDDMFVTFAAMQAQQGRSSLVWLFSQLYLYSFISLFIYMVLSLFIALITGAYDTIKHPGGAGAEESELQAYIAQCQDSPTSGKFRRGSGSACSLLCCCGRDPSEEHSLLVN
row,SMILES,EC50 [µM]
1,"O=S(=O)(Nc1ccccc1N1CCCCC1)c1cc2ccccc2s1 [Example 1, N-[2-(piperidin-1-yl)phenyl]-1-benzothiophene-2-sulfonamide]",91.1
2,"CN(C)c1ccc(S(=O)(=O)Nc2ccccc2N2CCCCC2)cc1 [Example 2, 4-(dimethylamino)-N-[2-(piperidin-1-yl)phenyl]benzene-1-sulfonamide]",58.9
3,"CN(C)c1ccccc1NS(=O)(=O)c1ccc(S(=O)(=O)N(C)C)cc1 [Example 3, N4-[2-(dimethylamino)phenyl]-N1,N1-dimethylbenzene-1,4-disulfonamide]",50.2
4,"CN(C)S(=O)(=O)c1ccc(S(=O)(=O)Nc2ccccc2N2CC3CCC2C3)cc1 (stereo not drawn) [Example 4, N4-(2-{2-azabicyclo[2.2.1]heptan-2-yl}phenyl)-N1,N1-dimethylbenzene-1,4-disulfonamide]",8.4
5,"CN(C(=O)c1ccc(S(=O)(=O)N(C)C)cc1)c1ccccc1N1CCN(C(=O)OC(C)(C)C)CC1 [Example 5, tert-butyl 4-(2-(4-(N,N-dimethylsulfamoyl)-N-methylbenzamido)phenyl)piperazine-1-carboxylate]",6
6,"CN(C)S(=O)(=O)c1ccc(CC(=O)Nc2ccccc2N2CCCC2)cc1 [Example 7, 2-[4-(dimethylsulfamoyl)phenyl]-N-[2-(pyrrolidin-1-yl)phenyl]acetamide]",85.4
7,"CN(C)S(=O)(=O)c1ccc(S(=O)(=O)Nc2ccccc2N2CCc3ccccc32)cc1 [Example 8, N4-[2-(2,3-dihydro-1H-indol-1-yl)phenyl]-N1,N1-dimethylbenzene-1,4-disulfonamide]",64
8,"CN(C)S(=O)(=O)c1ccc(S(=O)(=O)Nc2ccccc2N2CCc3ccccc3C2)cc1 [Example 9, N1,N1-dimethyl-N4-[2-(1,2,3,4-tetrahydroisoquinolin-2-yl)phenyl]benzene-1,4-disulfonamide]",47.4
9,"CN(C(=O)c1ccc(S(=O)(=O)N(C)C)cc1)c1ccccc1N1CCC(Oc2ccccn2)CC1 [Example 10, 4-(N,N-dimethylsulfamoyl)-N-methyl-N-(2-(4-(pyridin-2-yloxy)piperidin-1-yl)phenyl)benzamide]",8.4

# Results, then the molecule that gave them:
row,EC50 [µM],SMILES
1,2.4,"CC1Cc2cc(S(=O)(=O)Nc3ccccc3N3CCN(C(=O)OC(C)(C)C)CC3)ccc2O1 (racemic) [Example 92, tert-butyl 4-(2-((2-methyl-2,3-dihydrobenzofuran)-5-sulfonamido)phenyl)piperazine-1-carboxylate]"
2,4.4,"COC1CCCN(c2ccccc2NS(=O)(=O)c2ccc(S(=O)(=O)N(C)C)cc2)CC1 (single isomer, unassigned) [Example 41, N1-(2-(4-methoxyazepan-1-yl)phenyl)-N4,N4-dimethylbenzene-1,4-disulfonamide]"
3,5.6,"COC1CCCN(c2ccccc2NS(=O)(=O)c2ccc(S(=O)(=O)N(C)C)cc2)CC1 (single isomer, unassigned) [Example 42, N1-(2-(4-methoxyazepan-1-yl)phenyl)-N4,N4-dimethylbenzene-1,4-disulfonamide]"
4,15.9,"CN(C)S(=O)(=O)c1ccc(S(=O)(=O)NC2CCCCC2N2CCC(Oc3ccccc3)CC2)cc1 (single isomer, unassigned) [Example 62, N1,N1-dimethyl-N4-[2-(4-phenoxypiperidin-1-yl)cyclohexyl]benzene-1,4-disulfonamide]"
5,4.9,"CC1Cc2cc(S(=O)(=O)Nc3ccccc3N3CCN(C(=O)OC(C)(C)C)CC3)ccc2O1 (single isomer, unassigned) [Example 93, tert-butyl 4-(2-((2-methyl-2,3-dihydrobenzofuran)-5-sulfonamido)phenyl)piperazine-1-carboxylate]"
6,3.8,"CC1Cc2cc(S(=O)(=O)Nc3ccccc3N3CCN(C(=O)OC(C)(C)C)CC3)ccc2O1 (single isomer, unassigned) [Example 94, tert-butyl 4-(2-((2-methyl-2,3-dihydrobenzofuran)-5-sulfonamido)phenyl)piperazine-1-carboxylate]"
